This is an account of results in article PMC2982820, “Characterisation of PduS, the pdu Metabolosome Corrin Reductase, and Evidence of Substructural Organisation within the Bacterial Microcompartment” (PLoS ONE, 2010).

In data set [1] the target is T1, PduS (Citrobacter freundii, UniProt B1VB77).
T1 construct: full length, N-terminal hexa-His tag (pET14b, pJP024; template pAR3114), E. coli BL21(DE3)pLysS; FMN and two [4Fe-4S] when purified anaerobically
T1 sequence (B1VB77 1-451): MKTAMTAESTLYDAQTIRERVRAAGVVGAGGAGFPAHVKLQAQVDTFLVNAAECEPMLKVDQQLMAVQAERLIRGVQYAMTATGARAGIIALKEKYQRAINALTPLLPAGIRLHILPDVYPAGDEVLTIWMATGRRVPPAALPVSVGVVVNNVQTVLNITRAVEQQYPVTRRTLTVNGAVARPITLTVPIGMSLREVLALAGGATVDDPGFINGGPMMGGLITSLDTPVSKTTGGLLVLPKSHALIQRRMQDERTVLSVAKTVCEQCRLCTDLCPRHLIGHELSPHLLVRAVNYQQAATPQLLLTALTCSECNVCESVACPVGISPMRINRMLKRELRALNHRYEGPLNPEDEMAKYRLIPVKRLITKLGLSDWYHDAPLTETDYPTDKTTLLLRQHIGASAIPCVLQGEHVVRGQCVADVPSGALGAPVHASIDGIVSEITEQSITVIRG
The data set can be described thus: heat release of bound flavin, RP-HPLC-MS against FMN and FAD standards. Format: binding. Conditions: non-covalently bound, co-purified.

Substrate in data set [2]: NC(=O)C1=CN([C@@H]2O[C@H](COP(=O)(O)OP(=O)(O)OC[C@H]3O[C@@H](n4cnc5c(N)ncnc54)[C@H](O)[C@@H]3O)[C@@H](O)[C@H]2O)C=CC1
The data set can be described thus: purified protein. It is filed as biochemical, Citrobacter freundii. The following applies: cob(III)alamin as co-substrate, 20 mM Tris-HCl pH 8.0, 37 °C, anaerobic.

Turning to `Cc1cc2nc3c(=O)[nH]c(=O)nc-3n(C[C@H](O)[C@H](O)[C@H](O)COP(=O)(O)O)c2cc1C` [FMN], in data set [1], the “heat release of bound flavin, RP-HPLC-MS against FMN and FAD standards” value is recorded as “flavin extracted from PduS was found to have a retention time identical to authentic FMN”.

B1: PduS (Citrobacter freundii) (protein)
chain: MKTAMTAESTLYDAQTIRERVRAAGVVGAGGAGFPAHVKLQAQVDTFLVNAAECEPMLKVDQQLMAVQAERLIRGVQYAMTATGARAGIIALKEKYQRAINALTPLLPAGIRLHILPDVYPAGDEVLTIWMATGRRVPPAALPVSVGVVVNNVQTVLNITRAVEQQYPVTRRTLTVNGAVARPITLTVPIGMSLREVLALAGGATVDDPGFINGGPMMGGLITSLDTPVSKTTGGLLVLPKSHALIQRRMQDERTVLSVAKTVCEQCRLCTDLCPRHLIGHELSPHLLVRAVNYQQAATPQLLLTALTCSECNVCESVACPVGISPMRINRMLKRELRALNHRYEGPLNPEDEMAKYRLIPVKRLITKLGLSDWYHDAPLTETDYPTDKTTLLLRQHIGASAIPCVLQGEHVVRGQCVADVPSGALGAPVHASIDGIVSEITEQSITVIRG
notes: full length, N-terminal hexa-His tag (pET14b, pJP024; template pAR3114), E. coli BL21(DE3)pLysS; FMN and two [4Fe-4S] when purified anaerobically
Take B1: the Km in data set [2] turned out to be 24.7 µM.

The Km is the concentration of substrate that gives half-maximal velocity.
